Marks after values point to notes of the source that are not given here.
Experiments:
[1] = Bidirectional permeability assay in Caco-2 cells; settings: human, Caco-2, pH 7.4
[2] = Brain penetration in vivo assay (brain and plasma exposure); design: species or system mouse
Caco-2 cells = settings: human, Caco-2, 2 h, 3 μM, pH 7.4
[3] = system: IFNα-induced STAT phosphorylation (pSTAT5); assay: IFNα-induced STAT phosphorylation in human whole blood; format: cell-based; settings: 1 h compound, 1000 U/mL IFNα A/D 15 min, CD3 positive population, read-out: Human Whole blood IFNa pSTAT5 IC50
in vitro = settings: human, Caco-2, pH 7.4

Row | IC50 [3] | Papp A→B at 2 h, 3 μM (in vitro) | efflux ratio at 2 h, 3 μM (in vitro) | Structure (SMILES) | CACO2 (A-B) (Caco-2 cells) | other results
1 | – | – | – | C[C@H]1O[C@@H](O[C@H]2[C@@H](O)C[C@H](O[C@H]3[C@@H](O)C[C@H](O[C@H]4CC[C@@]5(C)[C@H](CC[C@@H]6[C@@H]5C[C@@H](O)[C@]5(C)[C@@H](C7=CC(=O)OC7)CC[C@]65O)C4)O[C@@H]3C)O[C@@H]2C)C[C@H](O)[C@@H]1O [Digoxin, reference compound] | – | Papp A→B at 2 h, 3 μM [1]: 1.8 ± 0.7 ×10⁻⁶ cm/s; Papp B→A at 2 h, 3 μM [1]: 26.5 ± 7.4 ×10⁻⁶ cm/s; efflux ratio at 2 h, 3 μM [1]: 14.7
2 | – | – | – | [2H]C([2H])([2H])NC(=O)c1nnc(NC(=O)C2CC2)cc1Nc1cccc(-c2cnn(CCF)n2)c1OC [Example 2, 6-cyclopropaneamido-4-({3-[2-(2-fluoroethyl)-2H-1,2,3-triazol-4-yl]-2-methoxyphenyl}amino)-N—(^2H3)methylpyridazine-3-carboxamide] | 427 nm/s | Ratio of exposure in brain to plasma (mouse) ([2]; footnote *: 2 mpk iv solution dose): 0.1*
3 | 390 nM | 41.6 ×10⁻⁶ cm/s | 0.4 | [2H]C([2H])([2H])NC(=O)c1nnc(NC(=O)OC)cc1Nc1cccc(-c2cnn(C)n2)c1OC [Example 7, methyl N-(5-{[2-methoxy-3-(2-methyl-2H-1,2,3-triazol-4-yl)phenyl]amino}-6-[(^2H3)methylcarbamoyl]pyridazin-3-yl)carbamate] | – | Kp at 40 min ([2]; C57BL6, mouse, brain / plasma, 2 mg/kg, footnote **: 2 mpk iv solution dose, exposures measured at 40 minutes, read-out: Ratio of exposure in brain to plasma (mouse)): 0.5
4 | – | – | – | [2H]C([2H])([2H])NC(=O)c1nnc(NC(=O)C2CC2)cc1Nc1cc(C)cc(-c2cnn(C)n2)c1OC [Example 17, 6-cyclopropaneamido-4-{[2-methoxy-5-methyl-3-(2-methyl-2H-1,2,3-triazol-4-yl)phenyl]amino}-N—(^2H3)methylpyridazine-3-carboxamide] | 282 nm/s | Ratio of exposure in brain to plasma (mouse) (1 h, 10 mpk, po) ([2]; footnote ***: nanosupension in 0.5% methocel A4M, 0.1% tween 80, 99.4% water): 0.2***
5 | 120 nM | 43.2 ×10⁻⁶ cm/s | 0.4 | [2H]C([2H])([2H])NC(=O)c1nnc(NC(=O)C2CC2)cc1Nc1nc(F)cc(-c2cnn(C)n2)c1OC [Example 62, 6-(Cyclopropanecarboxamido)-4-((6-fluoro-3-methoxy-4-(2-methyl-2H-1,2,3-triazol-4-yl)pyridin-2-yl)amino)-N-(methyl-d3)pyridazine-3-carboxamide] | – | Kp at 1.5 h ([2]; C57BL6, mouse, brain / plasma, 2 mg/kg, footnote *****: 2 mpk iv solution dose, exposures measured at 90 minutes, read-out: Ratio of exposure in brain to plasma (mouse)): 0.6
